# Patent publication US20070249670A1, “Glycogen Phosphorylase Inhibitor Compounds and Pharmaceutical Compositions Thereof” (SMITHKLINE BEECHAM CORPORATION, priority 2004, published 2007)
# pIC50: −log10 of the molar value.
# Target: T1, human liver glycogen phosphorylase a (HLGPa) (Homo sapiens, UniProt P06737)
# T1 construct: creating a full-length cDNA fused at the 5′ end to codons for methionine-glycine-alanine-histidine; 6xHis tag (leader Met-Gly-Ala-His6-Gly-Gly) (N); made in house; host or cells: E. coli (bacterial expression plasmid pTXK1007LTev)
# T1 sequence (P06737 2-847 limits assumed): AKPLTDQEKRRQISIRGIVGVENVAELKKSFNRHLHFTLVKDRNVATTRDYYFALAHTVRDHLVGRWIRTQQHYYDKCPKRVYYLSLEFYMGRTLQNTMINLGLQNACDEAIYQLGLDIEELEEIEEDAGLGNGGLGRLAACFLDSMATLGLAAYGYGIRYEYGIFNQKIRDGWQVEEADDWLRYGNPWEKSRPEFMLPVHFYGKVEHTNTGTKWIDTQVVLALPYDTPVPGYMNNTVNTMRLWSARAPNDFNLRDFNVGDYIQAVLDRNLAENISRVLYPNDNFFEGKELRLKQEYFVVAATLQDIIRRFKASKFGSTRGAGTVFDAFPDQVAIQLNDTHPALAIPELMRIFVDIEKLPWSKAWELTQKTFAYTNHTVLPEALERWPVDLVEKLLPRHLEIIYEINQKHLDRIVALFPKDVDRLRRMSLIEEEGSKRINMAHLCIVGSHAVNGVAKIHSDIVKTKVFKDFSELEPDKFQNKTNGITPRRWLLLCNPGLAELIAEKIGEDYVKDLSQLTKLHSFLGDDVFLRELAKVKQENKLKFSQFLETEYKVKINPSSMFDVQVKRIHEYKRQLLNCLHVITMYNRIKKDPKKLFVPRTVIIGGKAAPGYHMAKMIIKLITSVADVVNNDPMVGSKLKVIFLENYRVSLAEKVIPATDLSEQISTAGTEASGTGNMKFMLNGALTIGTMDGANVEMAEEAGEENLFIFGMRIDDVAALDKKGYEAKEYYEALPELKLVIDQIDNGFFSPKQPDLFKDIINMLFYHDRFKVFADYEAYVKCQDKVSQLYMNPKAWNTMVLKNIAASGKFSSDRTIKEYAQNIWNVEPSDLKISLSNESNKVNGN
# Test: Human liver glycogen phosphorylase a enzymatic activity assay (coupled, fluorescent resorufin readout, with and without 10 mM glucose)
# Type: biochemical
# Settings: human liver glycogen phosphorylase a enzymatic activity assay
row,SMILES,pIC50
1,"Cc1cccc(Cl)c1NC(=O)Nc1sc2c(c1C(=O)N[C@@H](CC(=O)O)C(=O)O)CCCC2 [Example 134, N-{[2-({[(2-chloro-6-methylphenyl)amino]carbonyl}amino)-4,5,6,7-tetrahydro-1-benzothien-3-yl]carbonyl}-L-aspartic acid]",5.44
2,"CC[C@H](C)[C@H](NC(=O)c1c(NC(=O)Nc2c(C)cc(C)cc2C)sc2c1CCCC2)C(=O)O [Example 127, N-[(2-{[(mesitylamino)carbonyl]amino}-4,5,6,7-tetrahydro-1-benzothien-3-yl)carbonyl]-L-isoleucine]",4.74
3,"Cc1cccc(Cl)c1NC(=O)Nc1cc(F)c(F)cc1C(=O)N[C@@H](Cc1ccccc1)C(=O)O [Example 72, N-[2-({[(2-chloro-6-methylphenyl)amino]carbonyl}amino)-4,5-difluorobenzoyl]-L-phenylalanine]",4.96
4,"Cc1cccc(C)c1NC(=O)Nc1cc(F)c(F)cc1C(=O)N[C@@H](CC1CCCCC1)C(=O)O [Example 118, 3-cyclohexyl-N-[2-({[(2,6-dimethylphenyl)amino]carbonyl}amino)-4,5-difluorobenzoyl]-L-alanine]",4.80
5,"COc1cc(NC(=O)Nc2c(C)cccc2Cl)c(C(=O)N[C@@H](Cc2ccccc2)C(=O)O)cc1OC [Example 73, N-[2-({[(2-chloro-6-methylphenyl)amino]carbonyl}amino)-4,5-dimethoxybenzoyl]-L-phenylalanine]",4.94
6,"CC[C@H](C)[C@H](NC(=O)c1cc(F)c(F)cc1NC(=O)Nc1c(C)cccc1Cl)C(=O)O [Example 70, N-[2-({[(2-chloro-6-methylphenyl)amino]carbonyl}amino)-4,5-difluorobenzoyl]-L-isoleucine]",5.22

# Next, values leading:
row,pIC50,SMILES
1,5.68,"Cc1cccc(C)c1NC(=O)Nc1cc2ccccc2cc1C(=O)N(C)CC(=O)O [Example 491, N-{[3-({[(2,6-dimethylphenyl)amino]carbonyl}amino)-2-naphthalenyl]carbonyl}-N-methylglycine]"
2,6.70,"O=C(Nc1cc(Cl)ccc1C(=O)N[C@H](C(=O)O)C1CCCCC1)Nc1c(Cl)cccc1Cl [Example 168, (2S)-({[4-Chloro-2-({[(2,6-dichlorophenyl)amino]carbonyl}amino)phenyl]carbonyl}amino)(cyclohexyl)-ethanoic acid]"
3,5.30,"COc1ccc(-c2nc(NC(=O)Nc3c(Cl)cc(Cl)cc3Cl)c(C(=O)N[C@H](C(=O)O)C3CCCCC3)s2)cc1 [Example 484, (2S)-Cyclohexyl({[2-[4-(methyloxy)phenyl]-4-({[(2,4,6-trichlorophenyl)amino]carbonyl}amino)-1,3-thiazol-5-yl]carbonyl}amino)ethanoic acid]"
4,8.70,"CCc1cc(C)c(NC(=O)Nc2cc3ccccc3cc2C(=O)N[C@H](C(=O)O)C2CCCCC2)c(C)c1 [Example 460, (2S)-cyclohexyl({[3-({[(4-ethyl-2,6-dimethylphenyl)amino]carbonyl}amino)-2-naphthalenyl]carbonyl}amino)ethanoic acid]"
5,6.77,"O=C(Nc1sc(-c2ccc(Cl)cc2)nc1C(=O)N[C@H](C(=O)O)C1CCCCC1)Nc1c(Cl)cc(Cl)cc1Cl [Example 490, (2S)-({[2-(4-Chlorophenyl)-5-({[(2,4,6-trichlorophenyl)amino]carbonyl}amino)-1,3-thiazol-4-yl]carbonyl}amino)(cyclohexyl)ethanoic acid]"
6,8.52,"C#CCc1cc(C)c(NC(=O)Nc2cc3ccccc3cc2C(=O)N[C@H](C(=O)O)C2CCCCC2)c(C)c1 [Example 471, (2S)-cyclohexyl[({3-[({[2,6-dimethyl-4-(2-propyn-1-yl)phenyl]amino}carbonyl)amino]-2-naphthalenyl}carbonyl)amino]ethanoic acid]"

# Same assay, conditions: human liver glycogen phosphorylase a; table does not say whether with or without 10 mM glucose
row,pIC50,SMILES
1,5.88,"COC(=O)[C@@H](NC(=O)c1cc(-c2ccccc2)sc1NC(=O)Nc1c(Cl)cc(Cl)cc1Cl)C1CCCCC1 [Example 392, methyl(2S)-cyclohexyl({[5-phenyl-2-({[(2,4,6-trichlorophenyl)amino]carbonyl}amino)-3-thienyl]carbonyl}amino)ethanoate]"
